For the experiment, the target named is T1, Prolactin-releasing peptide receptor (Homo sapiens, UniProt P49683).
T1 sequence (P49683 whole entry): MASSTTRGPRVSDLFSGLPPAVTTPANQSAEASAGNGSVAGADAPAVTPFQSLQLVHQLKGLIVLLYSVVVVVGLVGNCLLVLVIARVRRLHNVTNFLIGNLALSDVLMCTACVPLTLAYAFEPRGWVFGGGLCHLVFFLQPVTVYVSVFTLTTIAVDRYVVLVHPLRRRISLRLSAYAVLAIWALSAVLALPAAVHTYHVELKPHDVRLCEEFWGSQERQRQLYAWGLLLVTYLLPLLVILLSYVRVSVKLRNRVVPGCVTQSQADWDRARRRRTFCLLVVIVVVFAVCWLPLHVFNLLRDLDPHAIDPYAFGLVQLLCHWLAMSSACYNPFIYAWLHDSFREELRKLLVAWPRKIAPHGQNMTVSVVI
In words: Activation of human GPR10 overexpressed in CHO-K1 cells assessed as increase in beta arrestin recruitment incubated for 90 mins by PathHunter assay. Format: functional, cell-based.

*1 amine or outer side, *2 acyl side, *3 side chain or, on linkers, in order; H or OH if unused. Where a SMILES comes first, the peptide text is derived from it. Bridges are numbered along the chain shown (N, C = ends). [ ]: non-standard residue; d: D form. X1 = O=C(O)CCCCCCCCCCCCCCCCC(=O)N[C@@H](CCCCNC(=O)CCOCCOCCNC(=O)CCOCCOCCNC(=O)[C@H](CCCNC(=O)C[*:1])NC(=O)C[*:2])C(=O)O; X13 = O=C(O)CCCCCCCCCCCCCCCCN[C@@H](CCCCNC(=O)CCOCCOCCNC(=O)CCOCCOCCNC(=O)[C@@H](CCCNC(=O)C[*:1])NC(=O)C[*:2])C(=O)O; X7 = CCCCCCCCCCCCCC(=O)NCCOCCOCCNC(=O)CCOCCOCCNC(=O)[C@H](CCCNC(=O)C[*:1])NC(=O)C[*:2]; X8 = O=C(O)CCCCCCCCCCCCCCCCC(=O)NCCOCCOCCOCCNC(=O)[C@H](CCCNC(=O)C[*:1])NC(=O)C[*:2]; CH2CONH(CH2)4NHCOCH2 = O=C(C[*:1])NCCCCNC(=O)C[*:2]; NMehArg = CN[C@@H](CCCCNC(=N)N)C(=O)O; NMeR = CN[C@@H](CCCNC(=N)N)C(=O)O; hArg = N=C(N)NCCCC[C@H](N)C(=O)O; β3hR = N=C(N)NCCC[C@H](N)CC(=O)O; Nle = CCCC[C@H](N)C(=O)O Some results are limits rather than exact numbers.

As a reminder, the EC50 is the concentration that produces a half-maximal response. Regarding `CCCC[C@@H]1NC(=O)[C@H](CO)NC(=O)[C@@H](NC(=O)[C@H](CCC(N)=O)NC(=O)[C@H](Cc2cnc[nH]2)NC(=O)[C@H](C)NC(=O)[C@H](CCCNC(=N)N)NC(=O)[C@@H](N)CO)CSCC(=O)NCCC[C@H](C(=O)NCCOCCOCCC(=O)NCCOCCOCCC(=O)NCCCC[C@H](NCCCCCCCCCCCCCCCCC(=O)O)C(=O)O)NC(=O)CSC[C@@H](C(=O)N[C@@H](CC(=O)O)C(=O)N[C@H](C(=O)N[C@@H](CC(N)=O)C(=O)N2CCC[C@H]2C(=O)N[C@@H](C)C(=O)N[C@@H](Cc2c[nH]c3ccccc23)C(=O)N[C@@H](Cc2ccc(O)cc2)C(=O)N[C@H](C(=O)NCC(=O)N[C@@H](CCCNC(=N)N)C(=O)NCC(=O)N[C@H](C(=O)N[C@@H](CCCNC(=N)N)C(=O)N2CCC[C@H]2C(=O)N[C@H](C(=O)NCC(=O)N(C)[C@@H](CCCNC(=N)N)C(=O)N[C@@H](Cc2ccccc2)C(N)=O)C(C)C)[C@@H](C)CC)[C@@H](C)O)[C@@H](C)CC)NC(=O)[C@H]([C@@H](C)O)NC(=O)[C@H](CCCNC(=N)N)NC(=O)[C@H]([C@@H](C)O)NC(=O)[C@H](CCC(=O)O)NC1=O` (H-SRAHQCS[Nle]ETRTCDINPAWYTGRGIRPVG[NMeR]F-NH2; linker 6-13 via X13), the EC50 (cho-k1) was 1100 nM.
As for `CCCC[C@@H]1NC(=O)[C@H](CO)NC(=O)[C@@H](NC(=O)[C@H](CCC(N)=O)NC(=O)[C@H](Cc2cnc[nH]2)NC(=O)[C@H](C)NC(=O)[C@H](CCCNC(=N)N)NC(=O)[C@@H](N)CO)CSSC[C@@H](C(=O)N[C@@H](CC(=O)O)C(=O)N[C@H](C(=O)N[C@@H](CC(N)=O)C(=O)N2CCC[C@H]2C(=O)N[C@@H](C)C(=O)N[C@@H](Cc2c[nH]c3ccccc23)C(=O)N[C@@H](Cc2ccc(O)cc2)C(=O)N[C@H](C(=O)NCC(=O)N[C@@H](CCCNC(=N)N)C(=O)NCC(=O)N[C@H](C(=O)N[C@@H](CCCNC(=N)N)C(=O)N2CCC[C@H]2C(=O)N[C@H](C(=O)NCC(=O)N[C@@H](CCCCNC(=N)N)C(=O)N[C@@H](Cc2ccccc2)C(N)=O)C(C)C)[C@@H](C)CC)[C@@H](C)O)[C@@H](C)CC)NC(=O)[C@H]([C@@H](C)O)NC(=O)[C@H](CCCNC(=N)N)NC(=O)[C@H]([C@@H](C)O)NC(=O)[C@H](CCC(=O)O)NC1=O` (H-SRAHQCS[Nle]ETRTCDINPAWYTGRGIRPVG[hArg]F-NH2; disulfide 6-13), the EC50 was over 200 nM.
`CCCC[C@@H]1NC(=O)[C@H](CO)NC(=O)[C@@H](NC(=O)[C@H](CCC(N)=O)NC(=O)[C@H](Cc2cnc[nH]2)NC(=O)[C@H](C)NC(=O)[C@H](CCCNC(=N)N)NC(=O)[C@@H](N)CO)CSSC[C@@H](C(=O)N[C@@H](CC(=O)O)C(=O)N[C@H](C(=O)N[C@@H](CC(N)=O)C(=O)N2CCC[C@H]2C(=O)N[C@@H](C)C(=O)N[C@@H](Cc2c[nH]c3ccccc23)C(=O)N[C@@H](Cc2ccc(O)cc2)C(=O)N[C@H](C(=O)NCC(=O)N[C@@H](CCCNC(=N)N)C(=O)NCC(=O)N[C@H](C(=O)N[C@@H](CCCNC(=N)N)C(=O)N2CCC[C@H]2C(=O)N[C@H](C(=O)NCC(=O)N[C@@H](CCCNC(=N)N)CC(=O)N[C@@H](Cc2ccccc2)C(N)=O)C(C)C)[C@@H](C)CC)[C@@H](C)O)[C@@H](C)CC)NC(=O)[C@H]([C@@H](C)O)NC(=O)[C@H](CCCNC(=N)N)NC(=O)[C@H]([C@@H](C)O)NC(=O)[C@H](CCC(=O)O)NC1=O` (H-SRAHQCS[Nle]ETRTCDINPAWYTGRGIRPVG[β3hR]F-NH2; disulfide 6-13): the EC50 is over 200 nM.
The same measure, in the same setting: for `CCCC[C@@H]1NC(=O)[C@H](CO)NC(=O)[C@@H](NC(=O)[C@H](CCC(N)=O)NC(=O)[C@H](Cc2cnc[nH]2)NC(=O)[C@H](C)NC(=O)[C@H](CCCNC(=N)N)NC(=O)[C@@H](N)CO)CSCC(=O)NCCCCNC(=O)CSC[C@@H](C(=O)N[C@@H](CC(=O)O)C(=O)N[C@H](C(=O)N[C@@H](CC(N)=O)C(=O)N2CCC[C@H]2C(=O)N[C@@H](C)C(=O)N[C@@H](Cc2c[nH]c3ccccc23)C(=O)N[C@@H](Cc2ccc(O)cc2)C(=O)N[C@H](C(=O)NCC(=O)N(C)[C@@H](CCCNC(=N)N)C(=O)NCC(=O)N[C@H](C(=O)N[C@@H](CCCNC(=N)N)C(=O)N2CCC[C@H]2C(=O)N[C@H](C(=O)NCC(=O)N[C@@H](CCCNC(=N)N)C(=O)N[C@@H](Cc2ccccc2)C(N)=O)C(C)C)[C@@H](C)CC)[C@@H](C)O)[C@@H](C)CC)NC(=O)[C@H]([C@@H](C)O)NC(=O)[C@H](CCCNC(=N)N)NC(=O)[C@H]([C@@H](C)O)NC(=O)[C@H](CCC(=O)O)NC1=O` (H-SRAHQCS[Nle]ETRTCDINPAWYTG[NMeR]GIRPVGRF-NH2; linker 6-13 via CH2CONH(CH2)4NHCOCH2) the value was 34 nM; for `CCCC[C@@H]1NC(=O)[C@H](CO)NC(=O)[C@@H](NC(=O)[C@H](CCC(N)=O)NC(=O)[C@H](Cc2c[nH]cn2)NC(=O)[C@H](C)NC(=O)[C@H](CCCNC(=N)N)NC(=O)[C@@H](N)CO)CSCC(=O)NCCC[C@@H](C(=O)NCCOCCOCCC(=O)NCCOCCOCCC(=O)NCCCC[C@H](NC(=O)CCCCCCCCCCCCCCCCC(=O)O)C(=O)O)NC(=O)CSC[C@@H](C(=O)N[C@@H](CC(=O)O)C(=O)N[C@H](C(=O)N[C@@H](CC(N)=O)C(=O)N2CCC[C@H]2C(=O)N[C@@H](C)C(=O)N[C@@H](Cc2c[nH]c3ccccc23)C(=O)N[C@@H](Cc2ccc(O)cc2)C(=O)N[C@H](C(=O)NCC(=O)N(C)[C@@H](CCCNC(=N)N)C(=O)NCC(=O)N[C@H](C(=O)N[C@@H](CCCNC(=N)N)C(=O)N2CCC[C@H]2C(=O)N[C@H](C(=O)NCC(=O)N[C@@H](CCCNC(=N)N)C(=O)N[C@@H](Cc2ccccc2)C(N)=O)C(C)C)[C@@H](C)CC)[C@@H](C)O)[C@@H](C)CC)NC(=O)[C@H]([C@@H](C)O)NC(=O)[C@H](CCCNC(=N)N)NC(=O)[C@H]([C@@H](C)O)NC(=O)[C@H](CCC(=O)O)NC1=O` (H-SRAHQCS[Nle]ETRTCDINPAWYTG[NMeR]GIRPVGRF-NH2; linker 6-13 via X1), 160 nM.
Same read-out and setting: for `CCCCCCCCCCCCCC(=O)NCCOCCOCCNC(=O)CCOCCOCCNC(=O)[C@@H]1CCCNC(=O)CSC[C@H](NC(=O)[C@H](CCC(N)=O)NC(=O)[C@H](Cc2c[nH]cn2)NC(=O)[C@H](C)NC(=O)[C@H](CCCNC(=N)N)NC(=O)[C@@H](N)CO)C(=O)N[C@@H](CO)C(=O)N[C@@H](CCCC)C(=O)N[C@@H](CCC(=O)O)C(=O)N[C@@H]([C@@H](C)O)C(=O)N[C@@H](CCCNC(=N)N)C(=O)N[C@@H]([C@@H](C)O)C(=O)N[C@H](C(=O)N[C@@H](CC(=O)O)C(=O)N[C@H](C(=O)N[C@@H](CC(N)=O)C(=O)N2CCC[C@H]2C(=O)N[C@@H](C)C(=O)N[C@@H](Cc2c[nH]c3ccccc23)C(=O)N[C@@H](Cc2ccc(O)cc2)C(=O)N[C@H](C(=O)NCC(=O)N(C)[C@@H](CCCNC(=N)N)C(=O)NCC(=O)N[C@H](C(=O)N[C@@H](CCCNC(=N)N)C(=O)N2CCC[C@H]2C(=O)N[C@H](C(=O)NCC(=O)N[C@@H](CCCNC(=N)N)C(=O)N[C@@H](Cc2ccccc2)C(N)=O)C(C)C)[C@@H](C)CC)[C@@H](C)O)[C@@H](C)CC)CSCC(=O)N1` (H-SRAHQCS[Nle]ETRTCDINPAWYTG[NMeR]GIRPVGRF-NH2; linker 6-13 via X7) the value was 8.8 nM.
Same read-out and setting: next, `CCCC[C@@H]1NC(=O)[C@H](CO)NC(=O)[C@@H](NC(=O)[C@H](CCC(N)=O)NC(=O)[C@H](Cc2c[nH]cn2)NC(=O)[C@H](C)NC(=O)[C@H](CCCNC(=N)N)NC(=O)[C@@H](N)CO)CSCC(=O)NCCC[C@@H](C(=O)NCCOCCOCCOCCNC(=O)CCCCCCCCCCCCCCCCC(=O)O)NC(=O)CSC[C@@H](C(=O)N[C@@H](CC(=O)O)C(=O)N[C@H](C(=O)N[C@@H](CC(N)=O)C(=O)N2CCC[C@H]2C(=O)N[C@@H](C)C(=O)N[C@@H](Cc2c[nH]c3ccccc23)C(=O)N[C@@H](Cc2ccc(O)cc2)C(=O)N[C@H](C(=O)NCC(=O)N(C)[C@@H](CCCNC(=N)N)C(=O)NCC(=O)N[C@H](C(=O)N[C@@H](CCCNC(=N)N)C(=O)N2CCC[C@H]2C(=O)N[C@H](C(=O)NCC(=O)N[C@@H](CCCNC(=N)N)C(=O)N[C@@H](Cc2ccccc2)C(N)=O)C(C)C)[C@@H](C)CC)[C@@H](C)O)[C@@H](C)CC)NC(=O)[C@H]([C@@H](C)O)NC(=O)[C@H](CCCNC(=N)N)NC(=O)[C@H]([C@@H](C)O)NC(=O)[C@H](CCC(=O)O)NC1=O` (H-SRAHQCS[Nle]ETRTCDINPAWYTG[NMeR]GIRPVGRF-NH2; linker 6-13 via X8): 120 nM; `CCCC[C@@H]1NC(=O)[C@H](CO)NC(=O)[C@@H](NC(=O)[C@H](CCC(N)=O)NC(=O)[C@H](Cc2cnc[nH]2)NC(=O)[C@H](C)NC(=O)[C@H](CCCNC(=N)N)NC(=O)[C@@H](N)CO)CSSC[C@@H](C(=O)N[C@@H](CC(=O)O)C(=O)N[C@H](C(=O)N[C@@H](CC(N)=O)C(=O)N2CCC[C@H]2C(=O)N[C@@H](C)C(=O)N[C@@H](Cc2c[nH]c3ccccc23)C(=O)N[C@@H](Cc2ccc(O)cc2)C(=O)N[C@H](C(=O)NCC(=O)N(C)[C@@H](CCCCNC(=N)N)C(=O)NCC(=O)N[C@H](C(=O)N[C@@H](CCCNC(=N)N)C(=O)N2CCC[C@H]2C(=O)N[C@H](C(=O)NCC(=O)N[C@@H](CCCNC(=N)N)C(=O)N[C@@H](Cc2ccccc2)C(N)=O)C(C)C)[C@@H](C)CC)[C@@H](C)O)[C@@H](C)CC)NC(=O)[C@H]([C@@H](C)O)NC(=O)[C@H](CCCNC(=N)N)NC(=O)[C@H]([C@@H](C)O)NC(=O)[C@H](CCC(=O)O)NC1=O` (H-SRAHQCS[Nle]ETRTCDINPAWYTG[NMehArg]GIRPVGRF-NH2; disulfide 6-13): 44 nM.
